Data reported in ChEMBL document CHEMBL5604063, “ASAP - DENV-2 NS2B-NS3 protease fluorescence dose response” (2024).
pIC50: −log10 of the molar value. Values joined by “and” are separate entries in the source; they are usually repeats but may differ in a detail not shown here. Equal entries are not always repeated.

Legend:
[1] = target: T1, Genome polyprotein (dengue virus type 2, UniProt P29990); type: functional, Thailand/16681/1984
[2] = target: T1, Genome polyprotein; type: functional, Thailand/16681/1984; remark: listed apart in the source

T1 sequence (P29990 1346-1475 limits assumed): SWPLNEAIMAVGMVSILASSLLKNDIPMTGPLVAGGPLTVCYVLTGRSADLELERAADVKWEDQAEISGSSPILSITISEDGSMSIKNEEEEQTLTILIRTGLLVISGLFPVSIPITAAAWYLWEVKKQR
T1 sequence (P29990 1476-2093 limits assumed): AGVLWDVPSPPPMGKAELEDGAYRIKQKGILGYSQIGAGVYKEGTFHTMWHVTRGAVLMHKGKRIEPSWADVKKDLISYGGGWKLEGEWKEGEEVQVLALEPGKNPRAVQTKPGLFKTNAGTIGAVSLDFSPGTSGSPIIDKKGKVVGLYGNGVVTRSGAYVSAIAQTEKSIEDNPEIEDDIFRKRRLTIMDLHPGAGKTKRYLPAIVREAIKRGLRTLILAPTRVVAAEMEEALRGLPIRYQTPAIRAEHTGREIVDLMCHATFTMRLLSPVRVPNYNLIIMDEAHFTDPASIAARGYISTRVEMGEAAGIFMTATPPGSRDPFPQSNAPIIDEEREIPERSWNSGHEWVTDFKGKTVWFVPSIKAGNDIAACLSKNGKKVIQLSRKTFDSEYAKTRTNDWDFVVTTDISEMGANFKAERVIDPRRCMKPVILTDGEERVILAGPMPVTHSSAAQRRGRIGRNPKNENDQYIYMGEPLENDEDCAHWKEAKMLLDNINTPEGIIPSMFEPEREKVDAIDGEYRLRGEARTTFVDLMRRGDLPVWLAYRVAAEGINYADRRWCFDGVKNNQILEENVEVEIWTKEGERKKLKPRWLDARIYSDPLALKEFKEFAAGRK

Structure (SMILES) | pIC50 [1] | pIC50 [2]
Cc1c(C(=O)Nc2cccc(CS(C)(=O)=O)c2)cc(C2CC2)n1C | < 4.00 | < 4.00
O=C(NCC(F)F)[C@H](Nc1ncc2c(n1)CNC2)c1cc(Cl)cc(C2CC2)c1 | < 4.00 | < 4.00
NC(=O)COc1ccc(Br)cc1[C@H](Nc1ccc2c(c1)CNC2)C(=O)NCC(F)F | < 4.00 | < 4.00
Cn1nc(CNc2cc(-c3cccnc3)ccn2)cc1C1CC1 | < 4.00 | < 4.00
CC(=O)N(c1ccc2c(c1)CNC2)[C@]1(c2cc(Cl)cc(C3CC3)c2)CN(C)C1=O | < 4.00 | < 4.00
CO[C@H]1Cc2ccc(NC(=O)c3cc(C4CC4)n(C)c3C)cc2C1 | < 4.00 | < 4.00
O=C1Cc2c(cccc2C(=O)Nc2nnc3n2CCCS3)N1 | < 4.00 | < 4.00
O=C(O)COc1ccc(Cl)cc1[C@H](Nc1ccc2c(c1)CNC2)C(=O)NCC(F)F | < 4.00 | < 4.00
NC(=O)c1cn(C2CCCC2)nc1NC(=O)c1cccc2c1CC(=O)N2 | < 4.00 | < 4.00
O=C1Cc2c(cccc2C(=O)Nc2ccc3[nH]nnc3c2)N1 | < 4.00 | < 4.00
C=C(C)c1ccc(Cl)cc1[C@H](Nc1ccc2c(c1)CNC2)C(=O)NCC(F)F | < 4.00 | < 4.00
Cc1c(C(=O)Nc2ccc3c(c2)C[C@H](C(N)=O)O3)cc(C2CC2)n1C | < 4.00 | < 4.00
N#CCOc1ccc(Br)cc1[C@H](Nc1ccc2c(c1)CNC2)C(=O)NCC(F)F | < 4.00 | < 4.00
Cc1c(C(=O)Nc2ccc3c(c2)CCC(=O)N3CC2CCC2)cc(C2CC2)n1C | < 4.00 | < 4.00
Clc1cc(CNc2ncc3c(n2)CNC3)c2cn[nH]c2c1 | < 4.00 | < 4.00
Clc1cc(CNc2ccc3c(n2)CNC3)c2cn[nH]c2c1 | < 4.00 | < 4.00
Cc1c(C(=O)Nc2cccc(-c3nc(C4CC4)no3)c2)cc(C2CC2)n1C | < 4.00 | < 4.00
CC(=O)N1CC[C@]2(C1)C(=O)Nc1cccc(C(=O)Nc3ccc4c(c3)CNC4)c12 | < 4.00 | < 4.00
N#Cc1cccc(-c2nc3c(C(=O)Nc4cccc(F)c4)cc(Cl)cc3[nH]2)c1 | < 4.00 | < 4.00
CC(C)NC(=O)C[C@H]1NCc2cc(NC(=O)c3cc(Cl)cc4[nH]ncc34)ccc21 | < 4.00 | < 4.00
O=C(NCC(F)F)[C@H](Nc1cc2c(cc1Br)CNC2)c1cc(Cl)cc(C2CC2)c1 | 4.04 and 4.15 | < 4.00
O=C(NCC(F)F)[C@H](Nc1ccc2c(c1)CNC2)c1cc(Cl)cc2cccnc12 | 3.89 and 3.90 | 4.03

Structure (SMILES) | pIC50 [1] | pIC50 [2]
O=C(Nc1ccc2c(c1)CN[C@H]2CC1CC1)c1cc(F)cc2[nH]ncc12 | 4.50 and 4.65 | 4.42
CC1(C)NCc2cc(NC(=O)c3cc(F)cc4[nH]ncc34)ccc21 | < 4.00 | < 4.00
CC(C)(C)OC(=O)N1Cc2ccc(N[C@H](C(=O)O)c3cc(Cl)cc4[nH]ncc34)cc2C1 | 4.24 and 4.38 | 4.11
Cc1c(C(=O)Nc2cccc(-c3ccoc3)c2)cc(C2CC2)n1C | < 4.00 | < 4.00
CN(C)C(=O)C[C@H]1NCc2cc(NC(=O)c3cc(Cl)cc4[nH]ncc34)ccc21 | < 4.00 | < 4.00
CS(=O)(=O)NC(=O)C[C@H]1NCc2cc(NC(=O)c3cc(Cl)cc4[nH]ncc34)ccc21 | < 3.52 | < 3.53
CC(C)(C)NC(=O)C[C@H]1NCc2cc(NC(=O)c3cc(Cl)cc4[nH]ncc34)ccc21 | < 4.00 | < 4.00
C[C@H]1NCc2ccc(NC(=O)c3cc(Cl)cc4[nH]ncc34)cc21 | < 4.00 | < 4.00
CNC(=O)C[C@H]1NCc2cc(NC(=O)c3cc(Cl)cc4[nH]ncc34)ccc21 | < 4.00 | < 4.00
CC(=O)N[C@]1(C)C(=O)Nc2cc(F)cc(C(=O)Nc3ccc4c(c3)CNC4)c21 | < 4.00 | < 4.00
O=C1Cc2c(cccc2C(=O)Nc2cc(Br)c3ncnn3c2)N1 | < 4.00 | < 4.00
O=C(Nc1ccc2c(c1)CNC2)c1cc(Cl)cc2[nH]c(-c3cccc(F)c3)nc12 | 4.76 and 4.89 | 5.58
C[C@]1(S(C)(=O)=O)C(=O)Nc2cc(F)cc(C(=O)Nc3ccc4c(c3)CNC4)c21 | < 4.00 | < 4.00
NCCCn1c(C2CC2)cc(C(=O)Nc2cc([C@H]3CCOC3)ccn2)c1C1CC1 | < 4.00 | < 4.00
Cc1c(C(=O)Nc2ccc3c(c2F)CCN(C)C3=O)cc(C2CC2)n1C | < 4.00 | < 4.00
Cc1c(C(=O)Nc2cccc(Cn3cccn3)c2)cc(C2CC2)n1C | < 4.00 | < 4.00
O=C1Cc2c(cccc2C(=O)Nc2ccc(O[C@H]3CCOC3)nc2)N1 | < 4.00 | < 4.00
O=C1Cc2c(cccc2C(=O)Nc2cccc(-c3cn[nH]c3)c2)N1 | < 4.00 | < 4.00
O=C(Nc1ccc2c(c1)CN[C@H]2C1CC1)c1cc(F)cc2[nH]ncc12 | 4.81 and 4.79 | 4.87
Cc1c(C(=O)Nc2cc(C3CCOCC3)ccn2)cc(C2CC2)n1C | < 4.00 | < 4.00
N#Cc1cccc(-c2nc3c(C(=O)Nc4ccc(F)cc4)cc(Cl)cc3[nH]2)c1 | < 4.00 | < 4.00
Cc1c(C(=O)Nc2ccc3c(c2)C(=O)NC3)cc(C2CC2)n1C | < 4.00 | < 4.00

Structure (SMILES) | pIC50 [1] | pIC50 [2]
O=C(NCC(F)F)[C@H](Nc1ccc2c(c1)CNC2)c1cc(Br)cc2cn[nH]c12 | < 4.00 | < 4.00
COC(=O)[C@H]1NCc2cc(NC(=O)c3cc(F)cc4[nH]ncc34)ccc21 | < 4.00 | < 4.00
N#Cc1cccc(-c2nc3c(C(=O)Nc4ccccn4)cc(Cl)cc3[nH]2)c1 | < 4.00 | 4.54
Nc1ccncc1-c1cc(F)cc(C(=O)Nc2ccc3c(c2)CNC3)c1 | < 4.00 | < 4.00
C[C@H]1C(=O)Nc2ccc(C(=O)Nc3ccc4c(c3)CNC4)cc21 | 4.60 and 4.76 | 4.46
COCCN(C)C(=O)[C@H](Nc1ccc2c(c1)CNC2)c1cc(Cl)cc(C2CC2)c1 | < 4.00 | < 4.00
O=C1C[C@H](c2cccc(-c3cc(F)cc(C(=O)Nc4ccc5c(c4)CNC5)c3)c2)N1 | < 4.00 | < 4.00
CC(=O)N(c1ccc2c(c1)CNC2)[C@]1(c2cc(Cl)cc(C3CC3)c2)CCCN(C)C1=O | < 4.00 | < 4.00
O=C1Cc2c(cccc2C(=O)Nc2nc([C@H]3CCCOC3)cs2)N1 | < 4.00 | < 4.00
Cc1c(C(=O)Nc2cccc(CN3CCCC3=O)c2)cc(C2CC2)n1C | < 4.00 | < 4.00
CN(C)C(=O)C[C@H]1NCc2cc(NC(=O)c3cc(F)cc4[nH]ncc34)ccc21 | 4.26 and 4.14 | < 4.00
C[C@H]1NCc2cc(NC(=O)c3cc(F)cc4[nH]ncc34)ccc21 | 4.21 and 4.17 | 4.16
O=C(Nc1ccc2c(c1)CNC2)c1cc(Cl)cc2[nH]c(-c3ccccc3)nc12 | 4.29 and 4.67 | 5.48
O=C1Cc2c(cccc2C(=O)Nc2ccc(N3CCOC3=O)nc2)N1 | < 4.00 | < 4.00
O=C(NCC(F)F)[C@H](Nc1ccc2c(c1)CNC2)c1cc(Br)ccc1Oc1ccc(Cl)c(Cl)c1 | < 4.00 | < 4.00
Cc1cc(NC(=O)c2cc(C3CC3)n(C)c2C)ccc1OC1CCOCC1 | < 4.00 | < 4.00
O=C(Nc1ccc2c(c1)CN[C@H]2C(=O)O)c1cc(F)cc2[nH]ncc12 | 4.10 and < 4.00 | 4.15
Cc1c(C(=O)Nc2ccc3c(c2)CN(C)C3=O)cc(C2CC2)n1C | < 4.00 | < 4.00
Cn1nc(CNc2cc([C@H]3CCOC3)ccn2)cc1C1CC1 | < 4.00 | < 4.00
O=C([C@H](Nc1ccc2c(c1)CNC2)c1cc(Cl)cc(C2CC2)c1)N1CCOCC1 | < 4.00 | < 4.00
CC(C)n1nncc1-c1cc(F)cc(C(=O)Nc2ccc3c(c2)CNC3)c1 | < 4.00 | 4.05
